Columns and labels:
[1] = system: wild-type yeast (WT); assay: Toxicity to wild type yeast (structure-activity study, FIG. 25)
Protocol: Growth rescue in yeast was performed similar to previously reported (20) using 10 μM hinokitiol in low iron SD liquid media containing 10 μM FeCl3 in a 96-well plate unless otherwise noted. Wild type and fet3Δftr1Δ controls treated with vehicle (DMSO) were performed under identical conditions using the same low iron SD media containing 10 μM FeCl3 in the absence of hinokitiol. Yeast were grown overnight in YPD media and diluted at an OD600 of 0.1 in SD media, diluted 10-fold, and incubated at 30° C. with continuous shaking (200 rpm). The OD600 was obtained 24-48 hours after inoculation unless otherwise noted.
Small molecule dose-response (FIG. 1F) with hinokitiol and C2-deoxy hinokitiol (C2deOHino, see synthesis below) was determined by addition of the small molecule (40X stock solution in DMSO) to give the indicated final concentrations.

[2] = system: fet3Δftr1Δ yeast; assay: Fe3+ uptake assay in yeast; assay type: cell-based, Saccharomyces cerevisiae
Protocol: Iron (III) uptake into wild type and fet3Δftr1Δ yeast was adapted from Kosman and coworkers (56). Overnight yeast cultures were repeatedly centrifuged and rinsed with water. The cell pellet was resuspended in MilliQ water, and diluted in SD media without FeCl3. The cells were incubated at 30° C. for 3 hours, centrifuged and rinsed with water twice. The cells were then suspended to 3×10^7 cells/mL in SD media containing 50 mM sodium citrate and 2% glucose. Hinokitiol or C2deOHino (from 40X stocks in DMSO) was added to a final concentration of 100 μM before ^55FeCl3 ([…]) was added to the yeast suspensions. The suspension was continuously homogenized before aliquots were taken and diluted with 10 mL of room temperature water. Cells were then collected via vacuum filtration through a 0.45 μm nitrocellulose filter (Millipore HAWP), and rinsed with room temperature water (×5 of 100 mL). The filters were then transferred to a scintillation vial containing 3 mL of scintillation cocktail for measuring radioactivity using a liquid scintillation counter.

[3] = Iron efflux from liposomes using ferrozine; assay type: biochemical; conditions: for transport of ferrous and ferric iron across model liposomal membranes: 5 μM small molecule; for iron (III) efflux from POPC liposomes: 30 mM FeCl3 inside
Protocol: Iron (III) efflux from POPC liposomes was determined similar to previously reported (64). POPC liposomes were prepared as similarly reported (65) using 30 mM FeCl3, 62.5 mM citrate at pH=7.0 in 25 mM Mes/Tris buffer. External iron was removed by size exclusion chromatography using Sephadex G-50 and eluting with external buffer. External buffer consisted of 62.5 mM ascorbate at pH=7.0 in 25 mM Mes/Tris buffer. The liposomes were diluted to 1 mM phosphorus in this buffer. Ferrozine (Sigma 160601) was added (100X stock in external buffer) to a final concentration of 500 μM. Liposomal suspension was then transferred to a 96-well plate, and either DMSO or 5 μM hinokitiol, C2deOHino, deferiprone, or PIH (40X stock solution in DMSO) were added to initiate the experiment. The OD562 was determined every minute over the course of 2 hours using a plate-reader with continuous shaking at 30° C. to detect the relative amounts of external ferrozine-iron chelate at the indicated times. After 2 hours, liposomes were lysed with Triton-X to give 100% iron efflux.
Iron (II) efflux was performed as described above, however, the internal buffer alternatively consisted of 30 mM FeSO4, 62.5 mM ascorbate at pH=7.0 in 25 mM Mes/Tris buffer and Triton-X lysis was performed after 1 hour.
The rates of iron efflux with increasing concentrations of intraliposomal iron and/or hinokitiol were determined as described above using the indicated concentration of iron and hinokitiol. For the varying concentrations of iron, hinokitiol (10 μM) was added to the POPC liposomes, and the change in absorbance at 562 nm was determined over 2 hours. For the varying concentrations of hinokitiol, 30 mM intraliposomal iron was used as described above. The concentration of iron outside of liposomes was determined using the extinction coefficient for ferrozine-iron (27,900 M^−1 cm^−1) (66). This was used to determine the amount of iron released from liposomes at the indicated times using the total volume for each experiment. Rates of iron efflux were determined after one hour of hinokitiol treatment.

[4] = system: Mfrn1-deficient MEL cells; assay: Hemoglobinization of Mfrn1-deficient MEL cells; assay type: cell-based, mouse; conditions: 1 μM
Protocol: Differentiation of MEL Cells with DMSO (FIG. 3D) To perform differentiation experiments with MEL cells (39), the indicated MEL cells were diluted to 1×10^5 cells/mL in MEL Complete media containing 10 μM iron (III) citrate and 2% DMSO in the absence or presence of 1 μM hinokitiol or C2deOHino (added from 1000X stock in DMSO) in 12-well plates. Cells were then incubated at 37° C. for 72 hours unless otherwise noted.
Hemoglobinized MEL cells were quantified three days after DMSO induction through o-dianisidine staining similar to previously reported (74). Cells were centrifuged three days after induction and rinsed with PBS. […] The number of stained cells were then quantified via ImageJ analysis and compared to the number of total cells in each image. […]
MEL cells were induced for differentiation as described above and incubated at 37° C. for 70 hours before addition of a saturated iron-transferrin (^55Fe2Tf) solution (40 nM final concentration from a 10 μM ^55Fe2Tf stock). […] After completion, the cells were counted with a hemocytometer, the media was removed after centrifugation, the cells were rinsed with PBS (×3), and the cell suspension was diluted in scintillation cocktail and radioactivity was determined. […] After completion, the cells were counted with a hemocytometer, the media was removed after centrifugation, and the cells were rinsed with PBS (×3). […]

[5] = system: DMT1-deficient Belgrade (b/b) rats; assay: 59Fe gut absorption in Belgrade rats; assay type: in vivo; conditions: 1.5 mg/kg, oral gavage
Protocol: ^59Fe gastrointestinal absorption of iron in 3-5-month-old b/b rats was characterized similar to the procedure described above in the presence of either 6 mM hinokitiol or 6 mM C2deOHino. To compare with the rate of normal iron uptake, age-matched sibling control (+/+ or +/b) Belgrade rats were tested by the same procedure except that ^59Fe was administered without small molecule. Blood (50 μL) was taken from the tail vein at 15, 30, 60, 120, 180, 240, and 360 minutes post administration. Radioactivity was quantified by gamma counting and calculated as the percentage of gavaged dose (±SEM). Animals were humanely euthanized at 6 hours.

[6] = system: Caco-2; assay: WST-8 toxicity in Caco-2 cells
Protocol: Determination of small molecule-mediated toxicity in Caco-2, MEL, and/or J774 cells was performed according to manufacturer instructions using a WST-8 kit (Cayman Chemical 10010199) similar to previously reported (76) using a 1000× stock of the indicated small molecule in DMSO to give the indicated final concentration.

With `CC(C)c1cccc(=O)cc1` [C2deOHino, C2-deoxy hinokitiol] the “toxicity to wild type yeast” value [1] was “no biological activity”, the “55Fe uptake into fet3Δftr1Δ yeast” value [2] was “no uptake up to 100 μM” and the “transport of ferrous and ferric iron across model liposomal membranes” value [3] was “minimal transport”. The “iron (III) efflux from POPC liposomes” value [3] was “no efflux up to 100 μM”, the hemoglobinization [4] was “no effect” and the “reduction in 59Fe absorption relative to sibling controls (+/+ or +/b)” value [5] was 2 fold. It also gave an EC90 ([6]; read-out: Toxicity (EC90), Wild Type Caco-2, WST-8 assay after ≥24 hours of incubation) greater than 100 µM.

With `CC(C)c1cccc(=O)c(O)c1` [hinokitiol] the “toxicity to wild type yeast” value [1] was “kills wild-type yeast (WT) only at high concentrations”, the “55Fe uptake into fet3Δftr1Δ yeast” value [2] was “dose-dependent increase in ^55Fe uptake from 5 to 100 μM” and the “transport of ferrous and ferric iron across model liposomal membranes” value [3] was “autonomously transports both ferrous and ferric iron”. For the same compound, the “iron (III) efflux from POPC liposomes” value [3] was “dose- and temperature-dependently promoted iron (III) efflux”, the hemoglobinization [4] was “restored hemoglobinization” and the gut iron absorption ([5]; after one hour) was “increased ^55Fe absorption back to control levels”. The observable toxicity ([6]; Caco-2 monolayers, hinokitiol 500 nM) was “no observable toxicity”.

Reference: patent US12084411B2, “Hinokitiol analogues, methods of preparing and pharmaceutical compositions thereof” (The Board of Trustees of the University of Illinois, priority 2018, dated 2024)
